Measurements published in US10577383B2, “Macrocyclic inhibitors of myeloperoxidase” (BRISTOL-MYERS SQUIBB COMPANY, priority 2016, dated 2020).

Columns and labels:
myeloperoxidase [1] = biological target: T1, myeloperoxidase (Homo sapiens (Human), UniProt P05164); test: MPO Peroxidation Assay (Amplex Red Assay); format: biochemical; conditions: MPO peroxidation activity, 100 mM KPi (pH 7.4), ten minute preincubation; potency ranges defined in nM
Experimental: MPO Peroxidation Assay (Amplex Red Assay)
MPO peroxidation activity was measured in 100 mM KPi (pH 7.4) by utilizing the non-fluorescent reagent Amplex Red (Invitrogen Cat. #A12222) which can be oxidized to the highly fluorescent resorufin. Amplex Red is oxidized by the peroxidase action of MPO to resorufin. Reactions were carried out in 50 μL total volume by adding a 25 μL mixture of 200 pM myeloperoxidase and 40 nM H2O2 (Sigma #349887) to 100 nL inhibitor in 100% DMSO in a 384 well Perkin Elmer Optiplate. Enzyme and compound were preincubated for ten minutes at room temperature.
After the ten minute preincubation, 25 μL of an Amplex Red mixture containing 200 μM Amplex Red and 10 mM H2O2 was added to the plate. Kinetic determinations were carried out immediately on a Perkin Elmer Envision (15 minute kinetic read, Ex: 535 nm, Em: 590 nm).
(§1) IC50 values were calculated by determining the slope of the linear portion of the kinetic trace (180-540 secs), and using that calculated slope to determine % inhibition occurring at each concentration of inhibitor using the following equation:
(§2) [formula] where A=minimal Y value (activity level of inhibited sample), B=maximal Y value (activity level of uninhibited sample), C=Log IC50, D=Hill Slope, x=concentration of inhibitor. MPO Chlorination Assay (APF Assay) MPO chlorination activity was measured in 100 mM KPi (pH 7.4) by utilizing the non-fluorescent reagent Aminophenyl fluorescein (APF, Invitrogen Cat. #A36003). APF is cleaved by (—OCl) to yield the fluorescent compound fluorescein. Reactions were carried out in 50 μL total volume by adding a 25 μL mixture of 200 pM myeloperoxidase and 120 mM NaCl to 100 nL inhibitor in 100% DMSO in a 384 well, non-binding surface clear bottom plate (Corning #3655). Enzyme, inhibitor, and chloride were preincubated for ten minutes at room temperature.

myeloperoxidase [2] = biological target: T1, myeloperoxidase; test: MPO Chlorination Assay (APF Assay); format: biochemical; conditions: MPO chlorination activity, 100 mM KPi (pH 7.4), 120 mM NaCl, ten minute preincubation; potency ranges defined in nM
Experimental: as §2
After the ten minute preincubation, 25 μL of an APF mixture containing […], 120 mM NaCl and 10 μM H2O2 was added to the plate using the internal dispensing system of a Hammatsu FDSS 6000. Kinetic determinations were carried out immediately on the FDSS 6000 (3 minute kinetic read, 1 read every second, ex: 485 nm, em: 535 nm). IC50 values for inhibitors were calculated by taking the slope of the linear portion of the kinetic measurement (20 seconds to 80-120 secs).
as §1
[formula] where A=minimal Y value (activity level of inhibited sample), B=maximal Y value (activity level of uninhibited sample), C=Log IC50, D=Hill Slope, x=concentration of inhibitor. EPX Bromination Assay

T1 sequence (P05164 49-745): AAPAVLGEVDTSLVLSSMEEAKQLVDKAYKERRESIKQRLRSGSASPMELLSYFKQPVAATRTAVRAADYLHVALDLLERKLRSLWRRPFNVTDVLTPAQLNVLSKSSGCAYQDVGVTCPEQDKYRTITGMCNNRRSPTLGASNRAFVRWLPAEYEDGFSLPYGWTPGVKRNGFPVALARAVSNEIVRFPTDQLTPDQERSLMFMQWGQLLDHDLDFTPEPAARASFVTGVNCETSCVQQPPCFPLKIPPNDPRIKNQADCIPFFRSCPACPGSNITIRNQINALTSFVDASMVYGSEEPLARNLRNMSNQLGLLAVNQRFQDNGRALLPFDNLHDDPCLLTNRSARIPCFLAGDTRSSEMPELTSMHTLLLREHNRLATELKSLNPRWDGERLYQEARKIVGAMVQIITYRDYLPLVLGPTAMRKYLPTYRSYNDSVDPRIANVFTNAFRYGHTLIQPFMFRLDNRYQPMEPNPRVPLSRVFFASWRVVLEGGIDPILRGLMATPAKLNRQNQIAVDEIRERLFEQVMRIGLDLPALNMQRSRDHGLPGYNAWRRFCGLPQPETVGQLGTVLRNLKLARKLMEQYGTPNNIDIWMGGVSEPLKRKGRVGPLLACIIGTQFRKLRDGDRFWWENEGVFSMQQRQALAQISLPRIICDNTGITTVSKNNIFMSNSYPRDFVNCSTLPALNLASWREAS

Row | SMILES | IC50 (myeloperoxidase [1]) [nM] | IC50 (myeloperoxidase [2]) [nM]
1 | C[C@H]1Oc2cccc(c2)Cn2cc(cn2)C(c2cc(N)nc3[nH]nnc23)CCNCc2cccc1c2 (stereo partly drawn) [Example 10, 7-[(17R)-17-Methyl-18-oxa-3,4,10-triazatetracyclo[17.3.1.1^3,^6.1^12,^16]pentacosa-1(23),4,6(25),12,14,16(24),19,21-octaen-7-yl]-3H-[1,2,3]triazolo[4,5-b]pyridin-5-amine] | 101 to 999 | 1 to 100
2 | Nc1cc(C2CCN3C[C@H](COc4cccc(c4)Cn4cc2cn4)[C@@H](c2ccccc2)C3)c2nn[nH]c2n1 (stereo partly drawn) [Example 34, 7-[(12S,13R)-12-Phenyl-15-oxa-3,4,10-triazatetracyclo[14.3.1.1^3,^6.1^1^0,^13]docosa-1(20),4,6(22),16,18-pentaen-7-yl]-3H-[1,2,3]triazolo[4,5-b]pyridin-5-amine] | 1000 to 10000 | 101 to 999
3 | Nc1cc(C2CCN[C@H](CO)Cc3cccc(c3)Oc3cccc(c3)Cn3cc2cn3)c2nn[nH]c2n1 (stereo partly drawn) [Example 11, [(11S)-7-{5-Amino-3H-[1,2,3]triazolo[4,5-b]pyridin-7-yl}-18-oxa-3,4,10-triazatetracyclo[17.3.1.1^3,^6.1^13,^1^7]pentacosa-1(23),4,6(25),13,15,17(24),19,21-octaen-11-yl]methanol] | 101 to 999 | 1 to 100
4 | Nc1cc(C2CCNCc3cc(F)cc(c3)OCc3cccc(c3)Cn3cc2cn3)c2nn[nH]c2n1 (stereo not shown) [Example 12, 7-{14-Fluoro-17-oxa-3,4,10-triazatetracyclo[17.3.1.1^3,^6.1^12,^1^6]pentacosa-1(23),4,6(25),12(24),13,15,19,21-octaen-7-yl}-3H-[1,2,3]triazolo[4,5-b]pyridin-5-amine] | 1 to 100 | 1 to 100
5 | Nc1cc(C2CCNCC3(CC3)COc3cccc(c3)Cn3cc2cn3)c2nn[nH]c2n1 (stereo not shown) [Example 19, 7-{14′-Oxa-3′,4′,10′-triazaspiro[cyclopropane-1,12′-tricyclo[13.3.1.1^3,^6]icosane]-1′(19′),4′,6′(20′),15′,17′-pentaen-7′-yl}-3H-[1,2,3]triazolo[4,5-b]pyridin-5-amine] | 101 to 999 | 1 to 100
6 | Nc1cc(C2CCNCC(F)(F)c3cccc(c3)Oc3cccc(c3)Cn3cc2cn3)c2nn[nH]c2n1 (stereo not shown) [Example 36, 7-{12,12-Difluoro-18-oxa-3,4,10-triazatetracyclo[17.3.1.1^3,^6.1^13,^1^7]pentacosa-1(23),4,6(25),13,15,17(24),19,21-octaen-7-yl}-3H-[1,2,3]triazolo[4,5-b]pyridin-5-amine] | 1000 to 10000 | 1 to 100
7 | Nc1cc(C2CCNCc3ccc(F)c(c3)COc3ccc(F)c(c3)Cn3cc2cn3)c2nn[nH]c2n1 (stereo not shown) [Example 24, 7-{15,22-Difluoro-18-oxa-3,4,10-triazatetracyclo[17.3.1.1^3,^6.1^12,^1^6]pentacosa-1(23),4,6(25),12,14,16(24),19,21-octaen-7-yl}-3H-[1,2,3]triazolo[4,5-b]pyridin-5-amine] | 101 to 999 | 1 to 100
8 | Nc1cc(C2CCNCCCOc3cccc(c3)Cn3cc2cn3)c2nn[nH]c2n1 (stereo not shown) [Example 17, 7-{14-Oxa-3,4,10-triazatricyclo[13.3.1.1^3,^6]icosa-1(19),4,6(20),15,17-pentaen-7-yl}-3H-[1,2,3]triazolo[4,5-b]pyridin-5-amine] | 1000 to 10000 | 101 to 999
9 | Nc1cc(C2CCNCCc3cccc(c3)-c3cccc(c3)Cn3cc2cn3)c2nn[nH]c2n1 (stereo not shown) [Example 30, 7-{8,9,15-triazatetracyclo[16.3.1.1^2,^6.1^8,^11]tetracosa-1(22),2,4,6(24),9,11(23),18,20-octaen-12-yl}-3H-[1,2,3]triazolo[4,5-b]pyridin-5-amine] | 101 to 999 | 1 to 100
10 | Nc1cc(C2CCNC34CCC(c5ccccc5)(CC3)[C@H](C4)Oc3cccc(c3)CCn3cc2cn3)c2nn[nH]c2n1 (stereo partly drawn) [Example 29, 7-[(18S)-19-Phenyl-17-oxa-2,8,9-triazapentacyclo[17.2.2.1^1,^1^8.1^6,^9.1^12,^1^6]hexacosa-6(26),7,12(25),13,15-pentaen-5-yl]-3H-[1,2,3]triazolo[4,5-b]pyridin-5-amine] | 1 to 100 | 1 to 100
11 | CN1CCC(c2cc(N)nc3[nH]nnc23)c2cnn(c2)Cc2cccc(c2)Oc2cccc(c2)C1 (stereo not shown) [Example 6, 7-{10-methyl-17-oxa-3,4,10-triazatetracyclo[16.3.1.1^3,^6.1^12,^1^6]tetracosa-1(22),4,6(24),12,14,16(23),18,20-octaen-7-yl}-3H-[1,2,3]triazolo[4,5-b]pyridin-5-amine] | 1000 to 10000 | 101 to 999
12 | Nc1cc(C2CCNCC3(CC3)COc3cccc(c3)Cn3cc2cn3)c2nn[nH]c2n1 (single isomer, unassigned) [Example 21, 7-{14′-Oxa-3′,4′,10′-triazaspiro[cyclopropane-1,12′-tricyclo[13.3.1.1^3,^6]icosane]-1′(19′),4′,6′(20′),15′,17′-pentaen-7′-yl}-3H-[1,2,3]triazolo[4,5-b]pyridin-5-amine] | 101 to 999 | 1 to 100
13 | Nc1cc(C2CCNC34CCC(c5ccccc5)(CC3)[C@H](C4)Oc3cccc(c3)Cn3cc2cn3)c2nn[nH]c2n1 (stereo partly drawn) [Example 27, 7-[(17S)-18-Phenyl-16-oxa-2,8,9-triazapentacyclo[16.2.2.1^1,^1^7.1^6,^9.1^11,^1^5]pentacosa-6(25),7,11(24),12,14-pentaen-5-yl]-3H-[1,2,3]triazolo[4,5-b]pyridin-5-amine] | 1 to 100 | 1 to 100
14 | Nc1cc(C2CCNCCc3cccc(c3)Oc3cccc(c3)Cn3cc2cn3)c2nn[nH]c2n1 (single isomer, unassigned) [Example 4, 7-{18-oxa-3,4,10-triazatetracyclo[17.3.1.1^3,^6.1^13,^1^7]pentacosa-1(23),4,6(25),13,15,17(24),19,21-octaen-7-yl}-3H-[1,2,3]triazolo[4,5-b]pyridin-5-amine] | 101 to 999 | 101 to 999
15 | COCCN1CCc2cccc(c2)Oc2cccc(c2)Cn2cc(cn2)C(c2cc(N)nc3[nH]nnc23)CC1 (stereo not shown) [Example 37, 7-[10-(2-Methoxyethyl)-18-oxa-3,4,10-triazatetracyclo[17.3.1.1^3,^6.1^13,^1^7]pentacosa-1(23),4,6(25),13,15,17(24),19,21-octaen-7-yl]-3H-[1,2,3]triazolo[4,5-b]pyridin-5-amine] | 1000 to 10000 | 101 to 999
16 | C[C@H]1Cc2cccc(c2)Oc2cccc(c2)Cn2cc(cn2)C(c2cc(N)nc3[nH]nnc23)CCN1 (stereo partly drawn) [Example 7, 7-[(11S)-11-Methyl-18-oxa-3,4,10-triazatetracyclo[17.3.1.1^3,^6.1^13,^1^7]pentacosa-1(23),4,6(25),13,15,17(24),19,21-octaen-7-yl]-3H-[1,2,3]triazolo[4,5-b]pyridin-5-amine] | 1 to 100 | 1 to 100
17 | Nc1cc(C2CCNC34CCC(c5ccccc5)(CC3)[C@@H](C4)Oc3cccc(c3)Cn3cc2cn3)c2nn[nH]c2n1 (stereo partly drawn) [Example 28, 7-[(17R)-18-Phenyl-16-oxa-2,8,9-triazapentacyclo[16.2.2.1^1,^1^7.1^6,^9.1^11,^1^5]pentacosa-6(25),7,11(24),12,14-pentaen-5-yl]-3H-[1,2,3]triazolo[4,5-b]pyridin-5-amine] | 1000 to 10000 | 1 to 100
18 | Nc1cc([C@@H]2CCN[C@H]3C[C@H](Cc4ccccc4)[C@@H](C3)Oc3cccc(c3)Cn3cc2cn3)c2nn[nH]c2n1 [Example 25, 7-[(3R,4S,6S,10S)-4-Benzyl-2-oxa-7,13,14-triazatetracyclo[14.3.1.1^3,^6.1^11,^1^4]docosa-1(19),11(21),12,16(20),17-pentaen-10-yl]-3H-[1,2,3]triazolo[4,5-b]pyridin-5-amine] | 1 to 100 | 1 to 100
19 | Nc1cc(C2CCNCc3cccc(c3)Oc3cccc(c3)Cn3cc2cn3)c2nn[nH]c2n1 (stereo not shown) [Example 1, 7-{17-oxa-3,4,10-triazatetracyclo[16.3.1.1^3,^6.1^12,^1^6]tetracosa-1(22),4,6(24),12,14,16(23),18,20-octaen-7-yl}-3H-[1,2,3]triazolo[4,5-b]pyridin-5-amine] | 101 to 999 | 1 to 100
20 | Nc1cc(C2CCNCc3cccc(c3)OCc3cccc(c3)Cn3cc2cn3)c2nn[nH]c2n1 (stereo not shown) [Example 9, 7-{17-Oxa-3,4,10-triazatetracyclo[17.3.1.1^3,^6.1^12,^1^6]pentacosa-1(23),4,6(25),12,14,16(24),19,21-octaen-7-yl}-3H-[1,2,3]triazolo[4,5-b]pyridin-5-amine] | 1 to 100 | 1 to 100
